Test results reported in US9573907B2, “2, 4-pyrimidine derivatives and use thereof” (SNU R&DB FOUNDATION, priority 2009, dated 2017).

Tests used:
[1] = molecular target: interaction of gp96 and AIMP1 (Mus musculus, UniProt P08113); assay: ELISA assay of gp96-AIMP1 interaction; format: binding, murine
Description: FIGS. 1 to 9 represent suppression of cell surface gp96 by GPM1 reduces DC maturation and B220^+ population in gp96tm transgenic mice. (FIG. 1) Chemical structure of GPM1 (Formula 2) and negative control (NC1, Formula 16) used in this study. (FIG. 2) The dose-dependent effect of GPM1 or NC1 on the AIMP1-gp96 interaction using ELISA method as described. The indicated concentrations of the two compounds and biotin-conjugated murine gp96 were added to AIMP1 coated on the surface of microtiter wells, and gp96 bound to AIMP1 was detected with strepavidin-conjugated peroxidase. (FIG. 3) The binding of GPM1 to gp96 was examined by surface plasmon resonance (SPR). GPM1 at the indicated concentrations was injected to immobilized gp96 and the binding was measured using Biacore 3000. The response data were processed using data from a reference surface and buffer injections. Each concentration was tested in triplicate. (FIG. 4) RAW24.7 cells were treated with 10 μM GPM1 for 24 h. Cell lysates were immunoprecipitated with control IgG or anti-gp96 antibody and the immunoprecipitated proteins were immunoblotted with anti-KDELR1, antiAIMP1 and gp96 antibodies. WCL means whole cell lysate. (FIG. 5) Splenocytes isolated from C57BL/6 mice were treated with vehicle (5% DMSO in PBS), GPM1, or NC1 (10 μM, 24 h), stained for cell surface gp96, and followed by flow cytometry. (FIG. 6) AIMP1^+/+ or AIMP1^−/− mouse splenocytes (2×10^5 cells) were treated with vehicle, GPM1, or NC1 (10 μM, 24 h), fixed, and then co-cultured with WT bone marrow-derived DCs (1×10^4 cells) for 16 h. TNFα secreted from BMDCs was quantified by ELISA. (FIG. 7) Percentage of gp96^+ MHC class II^+ cell population in splenocytes from gp96tm transgenic female mice treated with vehicle (control) (n=9), GPM1 (n=9), and dexamethasone (n=7) at 30 mg/kg. (FIG. 8) Cell surface ICOSL of CD11b^+CD11c^+ (myeloid DCs), CD11b^−CD11c^+ (lymphoid DCs), and CD11b^+CD11c^− (macrophages) cell populations in splenocytes from gp96tm transgenic female mice treated with vehicle (n=9) and GPM1 (n=9) at 30 mg/kg. (FIG. 9) Percentage of B220^+, MHC class II^+, CD4^+, CD8^+, CD4 and CD8 double negative cell populations in splenocytes from gp96tm transgenic female mice treated with vehicle (n=9), GPM1 (n=9), and dexamethasone (n=7) at 30 mg/kg. Student t-test P values comparing GPM1-treated mice with control are indicated.
96-well plates (Maxisorp., F96; Nunc) were coated with 500 ng/well AIMP1 in PBS (pH 7.4). After washing, the remaining sites were blocked with PBS containing 1% BSA for 1 h. Binding of 10 ng/well biotin-conjugated gp96 was performed in Tris buffer (25 mM Tris, 10 mM NaCl and 0.4% Triton X-100). Each of the 6,580 compounds was added to the well at 100 nM and the plates were washed and incubated with HRP conjugated streptavidin in PBS containing 0.1% BSA and 0.1% Tween 20 for 30 min. The plates were washed, and then substrate was added to each well. The absorbance was monitored at 450 nm.
To identify chemicals that can affect membrane translocation of gp96, the present inventors employed the interaction of gp96 with AIMP1 as the screening target. For this screening, the present inventors chose 6,482 chemicals with different pharmacophore representing 150,000 different chemicals deposited in Korea Chemical Bank and identified the compounds that can inhibit the interaction of the two proteins. For the screening, the present inventors set up a modified ELISA method using recombinant AIMP1 and gp96 proteins as described in Experimental methods. Each of the tested compounds gave different effect on the interaction of the two proteins (FIG. 19). And the present inventors have selected 12 compounds that inhibited the interaction more than 95% of the control at 0.1 μM (Table 1). The present inventors obtained 1251 additional compounds derived from these 12 initial hits and tested them again for their activities against the gp96-AIMP1 interaction.

[2] = molecular target: T1, gp96 V706A/L707A (Homo sapiens, UniProt P14625, L711A/V710A); assay: Surface plasmon resonance, GPM1 binding to gp96 mutant V706A/L707A
T1 construct: made in house; host or cells: Escherichia coli BL21 (DE3)
Description: Human gp96 was expressed as His tag fusion protein in Escherichia coli BL21 (DE3) and purified by nickel affinity chromatography. His-tagged human gp96 was immobilized onto CM5 sensor chips using standard amine coupling2. PBS was used as a running buffer. The carboxymethyl dextran surface within one side of the flow cell was activated with a 7-min injection of a 1:1 ratio of 0.4M EDC and 0.1M NHS. The protein was coupled to the surface with a 7-min injection of gp96 diluted in 10 mM sodium acetate, pH 3.7. Remaining activated groups were blocked with a 7-min injection of 1.0M ethanolamine, pH 8.5. GPM1 compound was dissolved directly in the PBS running buffer containing 1% DMSO and injected at a flow rate of 20 μl/min at 25° C. and the binding was determined by the change in resonance units (RU). The compound concentration varied from 10 nM to 25 μM and each concentration was tested at least three times. All of the bound complexes dissociated back to baseline within a reasonable time frame. Therefore, no regeneration was required. Sensorgram was processed by subtracting the binding response recorded from the control surface, followed by subtracting an average of the buffer blank injections from the reaction spot. To determine kinetic rate constants, all data sets were fit to a simple 1:1 binding with drifting baseline model using BIAevaluation program.
The present inventors compared the dose-dependent effect of GPM1 and NC1 on the interaction of gp96 and AIMP1 using ELISA. […] The present inventors monitored the binding kinetics of GPM1 to gp96 or AIMP1 by surface plasmon resonance (SPR) using BIAcore 3000. […] To further define the GPM1 binding region of gp96 (Han, J. M., Park, S. G., Liu, B., Park, B. J., Kim, J. Y., Jin, C. H., Song, Y. W., Li, Z. & Kim, S. Am. J. Pathol. 170, 2042-2054 (2007)), the present inventors introduced point mutations at L707, V706, V712, L713, F714, Y731 and M738 that are located within AIMP1 binding region of gp96 and monitored how the mutations at these sites would affect the binding of GPM1 to gp96 using SPR method.

T1 sequence (P14625 22-803 V710A/L711A): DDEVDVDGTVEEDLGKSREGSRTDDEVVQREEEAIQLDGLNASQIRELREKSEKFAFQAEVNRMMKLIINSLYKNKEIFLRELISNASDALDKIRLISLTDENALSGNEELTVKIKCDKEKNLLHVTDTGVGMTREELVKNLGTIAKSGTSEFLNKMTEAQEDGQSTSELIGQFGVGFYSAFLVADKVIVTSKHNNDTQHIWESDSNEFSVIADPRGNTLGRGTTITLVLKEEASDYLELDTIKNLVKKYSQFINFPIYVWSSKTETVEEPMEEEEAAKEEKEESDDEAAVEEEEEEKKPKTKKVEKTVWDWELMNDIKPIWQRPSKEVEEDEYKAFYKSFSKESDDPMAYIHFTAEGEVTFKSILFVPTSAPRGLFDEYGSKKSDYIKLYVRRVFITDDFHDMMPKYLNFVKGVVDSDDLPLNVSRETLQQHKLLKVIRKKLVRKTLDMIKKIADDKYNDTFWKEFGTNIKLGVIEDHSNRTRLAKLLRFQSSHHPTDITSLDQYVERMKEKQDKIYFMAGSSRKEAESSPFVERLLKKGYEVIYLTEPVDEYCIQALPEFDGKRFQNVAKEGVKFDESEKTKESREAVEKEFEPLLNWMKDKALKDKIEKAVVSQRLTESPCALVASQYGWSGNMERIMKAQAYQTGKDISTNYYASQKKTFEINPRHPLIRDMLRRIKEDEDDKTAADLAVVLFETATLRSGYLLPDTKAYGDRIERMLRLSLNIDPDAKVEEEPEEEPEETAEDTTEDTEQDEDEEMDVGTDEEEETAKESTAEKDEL
interaction of gp96 and AIMP1, sequence (P08113 22-802): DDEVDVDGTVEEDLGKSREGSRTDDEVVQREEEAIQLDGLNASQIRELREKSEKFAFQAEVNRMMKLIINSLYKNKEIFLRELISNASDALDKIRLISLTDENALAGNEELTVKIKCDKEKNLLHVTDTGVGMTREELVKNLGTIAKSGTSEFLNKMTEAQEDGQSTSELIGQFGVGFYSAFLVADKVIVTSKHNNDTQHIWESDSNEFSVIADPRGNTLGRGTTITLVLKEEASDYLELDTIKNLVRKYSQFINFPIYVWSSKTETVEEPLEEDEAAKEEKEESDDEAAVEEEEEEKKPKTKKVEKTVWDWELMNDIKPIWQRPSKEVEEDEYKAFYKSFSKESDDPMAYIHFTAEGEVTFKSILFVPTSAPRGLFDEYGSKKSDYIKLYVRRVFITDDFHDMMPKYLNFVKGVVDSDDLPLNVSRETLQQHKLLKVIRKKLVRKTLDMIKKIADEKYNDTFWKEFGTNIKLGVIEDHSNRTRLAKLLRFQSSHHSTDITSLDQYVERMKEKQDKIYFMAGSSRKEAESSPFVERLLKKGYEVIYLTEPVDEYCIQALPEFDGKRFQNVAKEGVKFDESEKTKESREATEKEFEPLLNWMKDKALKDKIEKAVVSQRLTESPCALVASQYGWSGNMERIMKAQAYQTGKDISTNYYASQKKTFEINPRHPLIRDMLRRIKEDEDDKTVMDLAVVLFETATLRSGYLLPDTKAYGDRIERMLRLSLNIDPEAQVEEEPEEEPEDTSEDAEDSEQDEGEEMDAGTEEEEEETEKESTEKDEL

**Q.** With COC(=O)[C@@H](Oc1nc(OC)cc(OC)n1)C(C)C [GPM1, (S)-methyl 2-(4,6-dimethoxypyrimidin-2-yloxy)-3-methylbutanoate] as the compound, how does the IC50 ([1]; dose-dependent effect, ELISA, read-out: 50% inhibition of the interaction of gp96 and AIMP1) read?
**A.** ~30 nM

**Q.** What about the inhibition at 0.1 µM ([1]; read-out: Inhibition rate (at 100 nM; %)) of the same compound?
**A.** 95%

**Q.** What about the Kd [2] of the same compound?
**A.** 88.6 nM

**Q.** And the “koff (dissociation rate constant)” value [2]?
**A.** 0.0102 s⁻¹

**Q.** What about the kon ([2]; read-out: Ka) of the same compound?
**A.** 115000 M⁻¹ s⁻¹
